Experimental data from patent US10004701B2, “Methods and compositions for treating infection” (UNIVERSITY OF ROCHESTER, priority 2012, dated 2018).
Where a name gives a salt, the structure may show the parent alone. Read-outs that look alike come from different tables or passages of the source.

Columns and labels:
Experiment in all cases: AK assay 384-well format, Prestwick library screening
[1] = system: S. aureus strain USA300-0114; assay type: cell-based, Staphylococcus aureus; conditions: Staphylococcus aureus, USA300, 3 h
[2] = system: A. baumannii strain 98-37-09; assay type: cell-based, Acinetobacter baumannii; conditions: Acinetobacter baumannii, 983709, 3 h
[3] = system: E. coli; assay type: cell-based, Escherichia coli; conditions: Escherichia coli, 3 h
[4] = system: E. cloacae; assay type: cell-based, Enterobacter cloacae; conditions: Enterobacter cloacae, 3 h
[5] = system: E. faecium; assay type: cell-based, Enterococcus faecium; conditions: Enterococcus faecium, 3 h
[6] = system: P. aeruginosa; assay type: cell-based, Pseudomonas aeruginosa; conditions: Pseudomonas aeruginosa, 3 h
[7] = system: K. pneumoniae; assay type: cell-based, Klebsiella pneumoniae; conditions: Klebsiella pneumoniae, 3 h
[8] = 50 μM final drug concentration, […], read-out: AK-based Prestwick Library Screening Results, S. aureus (fold increase in extracellular AK activity)
[9] = 50 μM final drug concentration, […], read-out: AK-based Prestwick Library Screening Results, A. baumannii (fold increase in extracellular AK activity)
[10] = 50 μM final drug concentration, […], read-out: AK-based Prestwick Library Screening Results, E. coli (fold increase in extracellular AK activity)
[11] = 50 μM final drug concentration, […], read-out: AK-based Prestwick Library Screening Results, E. cloacae (fold increase in extracellular AK activity)
[12] = 50 μM final drug concentration, […], read-out: AK-based Prestwick Library Screening Results, E. faecium (fold increase in extracellular AK activity)
[13] = 50 μM final drug concentration, […], read-out: AK-based Prestwick Library Screening Results, P. aeruginosa (fold increase in extracellular AK activity)
[14] = 50 μM final drug concentration, […], read-out: AK-based Prestwick Library Screening Results, K. pneumoniae (fold increase in extracellular AK activity)
[15] = 50 μM final drug concentration, cutoff for positive-scoring molecules 3-fold increase, read-out: AK-based Prestwick Library Screening Results, S. aureus (fold increase in extracellular AK activity)
[16] = 50 μM final drug concentration, cutoff for positive-scoring molecules 3-fold increase, read-out: AK-based Prestwick Library Screening Results, A. baumannii (fold increase in extracellular AK activity)
[17] = 50 μM final drug concentration, cutoff for positive-scoring molecules 3-fold increase, read-out: AK-based Prestwick Library Screening Results, E. coli (fold increase in extracellular AK activity)
[18] = 50 μM final drug concentration, cutoff for positive-scoring molecules 3-fold increase, read-out: AK-based Prestwick Library Screening Results, E. cloacae (fold increase in extracellular AK activity)
[19] = 50 μM final drug concentration, cutoff for positive-scoring molecules 3-fold increase, read-out: AK-based Prestwick Library Screening Results, E. faecium (fold increase in extracellular AK activity)
[20] = 50 μM final drug concentration, cutoff for positive-scoring molecules 3-fold increase, read-out: AK-based Prestwick Library Screening Results, P. aeruginosa (fold increase in extracellular AK activity)
[21] = 50 μM final drug concentration, cutoff for positive-scoring molecules 3-fold increase, read-out: AK-based Prestwick Library Screening Results, K. pneumoniae (fold increase in extracellular AK activity)
[22] = 50 μM final drug concentration, planktonic, […], read-out: AK-based Prestwick Library Screening Results, S. aureus (fold increase in extracellular AK activity)
[23] = 50 μM final drug concentration, planktonic, […], read-out: AK-based Prestwick Library Screening Results, A. baumannii (fold increase in extracellular AK activity)
[24] = 50 μM final drug concentration, planktonic, […], read-out: AK-based Prestwick Library Screening Results, E. coli (fold increase in extracellular AK activity)
[25] = 50 μM final drug concentration, planktonic, […], read-out: AK-based Prestwick Library Screening Results, E. cloacae (fold increase in extracellular AK activity)
[26] = 50 μM final drug concentration, planktonic, […], read-out: AK-based Prestwick Library Screening Results, E. faecium (fold increase in extracellular AK activity)
[27] = 50 μM final drug concentration, planktonic, […], read-out: AK-based Prestwick Library Screening Results, P. aeruginosa (fold increase in extracellular AK activity)
[28] = 50 μM final drug concentration, planktonic, […], read-out: AK-based Prestwick Library Screening Results, K. pneumoniae (fold increase in extracellular AK activity)

## CN1[C@@H]2C[C@@H](OC(=O)[C@H](CO)c3ccccc3)C[C@H]1[C@@H]1O[C@@H]12 [Scopolamine hydrochloride]
[1]; [8]
  fold induction at 50 µM: 1.2
[2]; [9]
  fold induction at 50 µM: 1.2
[3]; [10]
  fold induction at 50 µM: 1.2
[4]; [11]
  fold induction at 50 µM: 1.5
[5]; [12]
  fold induction at 50 µM: 1
[6]; [13]
  fold induction at 50 µM: 1.1
[7]; [14]
  fold induction at 50 µM: 1.1

## COc1cc2ccc(=O)oc2cc1O [Scopoletin]
[1]; [15]
  fold induction at 50 µM: 0.3
[2]; [16]
  fold induction at 50 µM: 0.4
[3]; [17]
  fold induction at 50 µM: 0.4
[4]; [18]
  fold induction at 50 µM: 0.3
[5]; [19]
  fold induction at 50 µM: 0.9
[6]; [20]
  fold induction at 50 µM: 0.4
[7]; [21]
  fold induction at 50 µM: 0.4

## COc1cc2c(cc1O)[C@@H]1Cc3ccc(OC)c(O)c3CN1CC2 [Scoulerine]
[1]; [22]
  fold induction at 50 µM: 1
[2]; [23]
  fold induction at 50 µM: 1.3
[3]; [24]
  fold induction at 50 µM: 1.2
[4]; [25]
  fold induction at 50 µM: 1.6
[5]; [26]
  fold induction at 50 µM: 1
[6]; [27]
  fold induction at 50 µM: 1.1
[7]; [28]
  fold induction at 50 µM: 1

## O=C1C=C2C=C[C@@H]3C[C@@]2(O1)[C@H]1CCCCN31 [Securinine]
[1]; [8]
  fold induction at 50 µM: 1.1
[2]; [9]
  fold induction at 50 µM: 1.1
[3]; [10]
  fold induction at 50 µM: 1.3
[4]; [11]
  fold induction at 50 µM: 1.6
[5]; [12]
  fold induction at 50 µM: 1
[6]; [13]
  fold induction at 50 µM: 1.2
[7]; [14]
  fold induction at 50 µM: 0.8

## C#CCN(C)[C@H](C)Cc1ccccc1 [Selegiline hydrochloride]
[1]; [22]
  fold induction at 50 µM: 1.1
[2]; [23]
  fold induction at 50 µM: 1.1
[3]; [24]
  fold induction at 50 µM: 1.3
[4]; [25]
  fold induction at 50 µM: 1.6
[5]; [26]
  fold induction at 50 µM: 1
[6]; [27]
  fold induction at 50 µM: 1.2
[7]; [28]
  fold induction at 50 µM: 1.2

## C=C1C/C(=C/C)C(=O)O[C@@H]2CCN3CC=C(COC(=O)[C@]1(C)O)[C@H]23 [Seneciphylline]
[1]; planktonic S. aureus, 50 μM final drug concentration, […], read-out: AK-based Prestwick Library Screening Results, S. aureus (increase in extracellular AK activity)
  fold induction at 50 µM: 0.8
[2]; planktonic A. baumannii, 50 μM final drug concentration, […], read-out: AK-based Prestwick Library Screening Results, A. baumannii (increase in extracellular AK activity)
  fold induction at 50 µM: 0.8
[3]; planktonic E. coli, 50 μM final drug concentration, […], read-out: AK-based Prestwick Library Screening Results, E. coli (increase in extracellular AK activity)
  fold induction at 50 µM: 0.9
[4]; planktonic E. cloacae, 50 μM final drug concentration, […], read-out: AK-based Prestwick Library Screening Results, E. cloacae (increase in extracellular AK activity)
  fold induction at 50 µM: 1.2
[5]; planktonic E. faecium, 50 μM final drug concentration, […], read-out: AK-based Prestwick Library Screening Results, E. faecium (increase in extracellular AK activity)
  fold induction at 50 µM: 0.9
[6]; planktonic P. aeruginosa, 50 μM final drug concentration, […], read-out: AK-based Prestwick Library Screening Results, P. aeruginosa (increase in extracellular AK activity)
  fold induction at 50 µM: 0.8
[7]; planktonic K. pneumoniae, 50 μM final drug concentration, […], read-out: AK-based Prestwick Library Screening Results, K. pneumoniae (increase in extracellular AK activity)
  fold induction at 50 µM: 0.7

## NCCc1c[nH]c2ccc(O)cc12 [Serotonin hydrochloride]
[1]; planktonic S. aureus, 50 μM final drug concentration, 384-well, […], read-out: AK-based Prestwick Library Screening Results: S. aureus (increase in extracellular AK activity)
  fold induction at 50 µM: 0.6
[2]; planktonic A. baumannii, 50 μM final drug concentration, 384-well, […], read-out: AK-based Prestwick Library Screening Results: A. baumannii (increase in extracellular AK activity)
  fold induction at 50 µM: 0.6
[3]; planktonic E. coli, 50 μM final drug concentration, 384-well, cutoff for positive-scoring molecules 3-fold increase, read-out: AK-based Prestwick Library Screening Results: E. coli (increase in extracellular AK activity)
  fold induction at 50 µM: 0.8
[4]; planktonic E. cloacae, 50 μM final drug concentration, 384-well, […], read-out: AK-based Prestwick Library Screening Results: E. cloacae (increase in extracellular AK activity)
  fold induction at 50 µM: 0.6
[5]; planktonic E. faecium, 50 μM final drug concentration, 384-well, […], read-out: AK-based Prestwick Library Screening Results: E. faecium (increase in extracellular AK activity)
  fold induction at 50 µM: 0.9
[6]; planktonic P. aeruginosa, 50 μM final drug concentration, 384-well, […], read-out: AK-based Prestwick Library Screening Results: P. aeruginosa (increase in extracellular AK activity)
  fold induction at 50 µM: 0.6
[7]; planktonic K. pneumoniae, 50 μM final drug concentration, 384-well, […], read-out: AK-based Prestwick Library Screening Results: K. pneumoniae (increase in extracellular AK activity)
  fold induction at 50 µM: 0.6

## Clc1ccc(C(Cn2ccnc2)OCc2csc3c(Cl)cccc23)c(Cl)c1 (stereo not shown) [Sertaconazole nitrate]
[1]; [15]
  fold induction at 50 µM: 0.7
[2]; [16]
  fold induction at 50 µM: 2.4
[3]; [17]
  fold induction at 50 µM: 0.7
[4]; [18]
  fold induction at 50 µM: 0.4
[5]; [19]
  fold induction at 50 µM: 2.8
[6]; [20]
  fold induction at 50 µM: 0.5
[7]; [21]
  fold induction at 50 µM: 0.7

## CN[C@H]1CC[C@@H](c2ccc(Cl)c(Cl)c2)c2ccccc21 [Sertraline]
[1]; planktonic S. aureus, 50 μM final drug concentration, positive cutoff 3-fold increase, read-out: AK-based Prestwick library screening result, S. aureus (fold increase in extracellular AK activity)
  fold induction at 50 µM: 1.6
[2]; planktonic A. baumannii, 50 μM final drug concentration, positive cutoff 3-fold increase, read-out: AK-based Prestwick library screening result, A. baumannii (fold increase in extracellular AK activity)
  fold induction at 50 µM: 2.9
[3]; planktonic E. coli, 50 μM final drug concentration, positive cutoff 3-fold increase, read-out: AK-based Prestwick library screening result, E. coli (fold increase in extracellular AK activity)
  fold induction at 50 µM: 1.6
[4]; planktonic E. cloacae, 50 μM final drug concentration, positive cutoff 3-fold increase, read-out: AK-based Prestwick library screening result, E. cloacae (fold increase in extracellular AK activity)
  fold induction at 50 µM: 1.5
[5]; planktonic E. faecium, 50 μM final drug concentration, positive cutoff 3-fold increase, read-out: AK-based Prestwick library screening result, E. faecium (fold increase in extracellular AK activity)
  fold induction at 50 µM: 1.1
[6]; planktonic P. aeruginosa, 50 μM final drug concentration, positive cutoff 3-fold increase, read-out: AK-based Prestwick library screening result, P. aeruginosa (fold increase in extracellular AK activity)
  fold induction at 50 µM: 1.2
[7]; planktonic K. pneumoniae, 50 μM final drug concentration, positive cutoff 3-fold increase, read-out: AK-based Prestwick library screening result, K. pneumoniae (fold increase in extracellular AK activity)
  fold induction at 50 µM: 1.4

## CCC(C)(C)C(=O)O[C@H]1C[C@@H](C)C=C2C=C[C@H](C)[C@H](CC[C@@H]3C[C@@H](O)CC(=O)O3)[C@H]21 [Simvastatin]
[1]; read-out: AK-based Prestwick Library Screening Results, S. aureus (fold increase in extracellular AK activity)
  fold induction at 50 µM: 0.4
[2]; read-out: AK-based Prestwick Library Screening Results, A. baumannii (fold increase in extracellular AK activity)
  fold induction at 50 µM: 2.5
[3]; read-out: AK-based Prestwick Library Screening Results, E. coli (fold increase in extracellular AK activity)
  fold induction at 50 µM: 1.6
[4]; read-out: AK-based Prestwick Library Screening Results, E. cloacae (fold increase in extracellular AK activity)
  fold induction at 50 µM: 1.5
[5]; read-out: AK-based Prestwick Library Screening Results, E. faecium (fold increase in extracellular AK activity)
  fold induction at 50 µM: 1
[6]; read-out: AK-based Prestwick Library Screening Results, P. aeruginosa (fold increase in extracellular AK activity)
  fold induction at 50 µM: 1.1
[7]; read-out: AK-based Prestwick Library Screening Results, K. pneumoniae (fold increase in extracellular AK activity)
  fold induction at 50 µM: 1.2
